Our source for the melting point values is patent US6465482B2, “Arylpiperazinyl-cyclohexyl indole derivatives for the treatment of depression” (Wyeth, priority 1999, dated 2002).

For orientation: melting point means the temperature of the solid-liquid transition.

The structures appear in SMILES notation. Counter-ions that a name gives are not always drawn.

With `c1cc(N2CCN([C@H]3CC[C@H](c4c[nH]c5ncccc54)CC3)CC2)c2cc[nH]c2c1` (as salt: HCl) [Example 10b, 3-{(1,4-trans)-4-[4-(1H-Indole-4-yl)-piperazin-1-yl]-cyclohexyl}-1H-pyrrolo[2,3-b]pyridine], the melting point is > 250 °C (dec.).

As for `CCn1cc([C@H]2CC[C@H](N3CCN(c4cccc5[nH]ccc45)CC3)CC2)c2cc(C#N)ccc21` (as salt: HCl) [Example 13b, 1-Ethyl-3-{(1,4-trans)-4-[4-(1H-indol-4-yl)-piperazin-1-yl]-cyclohexyl}-1H-indole-5-carbonitrile], the melting point was 250 °C (dec.).

The molecule `Cn1ccc2c(N3CCN([C@H]4CC[C@@H](c5cn(C)c6ccc(C#N)cc65)CC4)CC3)cccc21` (as salt: HCl) [Example 17, 1-Methyl-3-{(1,4-cis)-4-[4-(1-methyl-1H-indol-4-yl)-piperazin-1-yl]-cyclohexyl}-1H-indole-5-carbonitrile] had a melting point of 252 to 255 °C.

`COc1ccccc1N1CCN([C@H]2CC[C@@H](c3c[nH]c4ccc(F)cc43)CC2)CC1` (as salt: HCl) [Example 18, 5-Fluoro-3-{(cis)-4-[4-(2-methoxy-phenyl)-piperazin-1-yl]-cyclohexyl}-1H-indole] showed a melting point of 170 to 172 °C.

Regarding `COc1ccccc1C1CCN([C@H]2CC[C@@H](c3c[nH]c4ccc(F)cc43)CC2)CC1` (as salt: HCl) [Example 19a, 5-Fluoro-3-{(1,4-cis)-4-[4-(2-methoxy-phenyl)-piperidin-1-yl]-cyclohexyl}-1H-indole], the melting point is 245 to 250 °C.

The molecule `COc1ccccc1C1CCN([C@H]2CC[C@H](c3c[nH]c4ccc(F)cc43)CC2)CC1` (as salt: HCl) [Example 19b, 5-Fluoro-3-{(1,4-trans)-4-[4-(2-methoxy-phenyl)-piperidin-1-yl]-cyclohexyl}-1H-indole] registered a melting point of 297 to 299 °C.

Consider `COc1ccc2[nH]cc([C@H]3CC[C@@H](N4CCN(c5ccccc5OC)CC4)CC3)c2c1` (as salt: HCl) [Example 20a, 5-Methoxy-3-{(1,4-cis)-4-[4-(2-methoxy-phenyl)-piperazin-1-yl]-cyclohexyl}-1H-indole], for which the melting point was in the range of 198 to 199 °C.

`COc1ccc2[nH]cc([C@H]3CC[C@H](N4CCN(c5ccccc5OC)CC4)CC3)c2c1` (as salt: HCl) [Example 20b, 5-Methoxy-3-{(1,4-trans)-4-[4-(2-methoxy-phenyl)-piperazin-1-yl]-cyclohexyl}-1H-indole] showed a melting point of 195 to 197 °C.

In turn, `COc1ccccc1N1CCN([C@H]2CC[C@@H](c3c[nH]c4ncccc43)CC2)CC1` (as salt: HCl) [Example 21, 3-{(1,4-cis)-4-[4-(2-Methoxy-phenyl)-piperazin-1-yl]-cyclohexyl}-1H-pyrrolo[2,3-b]pyridine] had a melting point of 259 to 261 °C.

In turn, `COc1ccc(F)cc1N1CCN([C@H]2CC[C@@H](c3c[nH]c4ccc(F)cc43)CC2)CC1` (as salt: HCl) [Example 22a, 5-Fluoro-3-{(cis)-4-[4-(5-fluoro-2-methoxy-phenyl)-piperazin-1-yl]-cyclohexyl}-1H-indole] yielded a melting point of 171 to 174 °C.

In turn, `COc1ccc(F)cc1N1CCN([C@H]2CC[C@H](c3c[nH]c4ccc(F)cc43)CC2)CC1` (as salt: HCl) [Example 22b, 5-Fluoro-3-{(trans)-4-[4-(5-fluoro-2-methoxy-phenyl)-piperazin-1-yl]-cyclohexyl}-1H-indole] came in with a melting point of 272 to 273.5 °C.

In the case of `Fc1cccc2[nH]cc([C@H]3CC[C@@H](N4CCN(c5cccc6c5OCCO6)CC4)CC3)c12` (as salt: HCl) [Example 23a, 3-{(1,4-cis)-4-[4-(2,3-Dihydro-benzo[1,4]dioxin-5-yl)-piperazin-1-yl]-cyclohexyl}-4-fluoro-1H-indole], the melting point fell in the range of 215 to 220 °C.

With `Fc1ccc2c(c1)[nH]cc2[C@H]1CC[C@@H](N2CCN(c3cccc4c3OCCO4)CC2)CC1` (as salt: HCl) [Example 25a, 3-{(1,4-cis)-4-[4-(2,3-Dihydro-benzo[1,4]dioxin-5-yl)-piperazin-1-yl]-cyclohexyl}-6-fluoro-1H-indole], the melting point lay in the range of 228 to 230 °C.

As to `Fc1ccc2c(c1)[nH]cc2[C@H]1CC[C@H](N2CCN(c3cccc4c3OCCO4)CC2)CC1` (as salt: HCl) [Example 25b, 3-{(1,4-trans)-4-[4-(2,3-Dihydro-benzo[1,4]dioxin-5-yl)-piperazin-1-yl]-cyclohexyl}-6-fluoro-1H-indole], the melting point lay within 309 to 310 °C.

For the molecule `N#Cc1ccc2[nH]cc([C@H]3CC[C@@H](N4CCN(c5cccc6c5OCCO6)CC4)CC3)c2c1` (as salt: HCl) [Example 26a, 3-{(1,4-cis)-4-[4-(2,3-Dihydro-benzo[1,4]dioxin-5-yl)-piperazin-1-yl]-cyclohexyl}-1H-indole-5-carbonitrile], the melting point was 300 °C.

Consider `N#Cc1ccc2[nH]cc([C@H]3CC[C@H](N4CCN(c5cccc6c5OCCO6)CC4)CC3)c2c1` (as salt: HCl) [Example 26b, 3-{(1,4-trans)-4-[4-(2,3-Dihydro-benzo[1,4]dioxin-5-yl)-piperazin-1-yl]-cyclohexyl}-1H-indole-5-carbonitrile], for which the melting point was 300 °C (dec.).

In turn, `Cn1cc([C@H]2CC[C@@H](N3CCN(c4cccc5cccnc45)CC3)CC2)c2cc(C#N)ccc21` (as salt: HCl) [Example 30, 1-Methyl-3-[(1,4-cis)-4-(4-quinolin-8-yl-piperazin-1-yl)-cyclohexyl]-1H-indole-5-carbonitrile] returned a melting point of 288 to 289 °C.

In turn, `Cn1cc([C@H]2CC[C@@H](N3CCN(c4cc(F)cc5c4OCC5)CC3)CC2)c2cc(C#N)ccc21` (as salt: HCl) [Example 33c, 3-{(1,4-cis)-4-[4-(5-Fluoro-2,3-dihydro-benzofuran-7-yl)-piperazin-1-yl]-cyclohexyl}-1-methyl-1H-indole-5-carbonitrile] registered a melting point of 282 to 284 °C.

In the case of `COc1ccccc1N1CCN(C2CC=C(c3c[nH]c4ccc(F)cc34)CC2)CC1` (stereo not drawn) (as salt: HCl) [Example 35, 5-Fluoro-3-{4-[4-(2-methoxy-phenyl)-piperazin-1-yl]cyclohex-1-enyl}-1H-indole], the melting point amounted to 250 °C.

Consider `N#Cc1ccc2[nH]cc(C3=CCC(N4CCN(c5cccc6[nH]ccc56)CC4)CC3)c2c1` (stereo not drawn) (as salt: HCl) [Example 36, 3-{4-[4-(1H-Indol-4-yl)-piperazin-1-yl]-cyclohex-1-enyl}-1H-indole-5-carbonitrile], for which the melting point is 199 to 201 °C.

On to `COc1cc(N2CCN([C@H]3CC[C@H](c4c[nH]c5ccc(C#N)cc54)CC3)CC2)c2cc[nH]c2c1` (as salt: HCl) [Example 68b, 3-[trans-4-[4-(6-Methoxy-1H-indole-4-yl)-1-piperazinyl]cyclohexyl]1H-indole-5-carbonitrile], for which the melting point is greater than 210 °C.

For `COc1ccc2cc(N3CCN(C4CCC(c5c[nH]c6ccc(F)cc56)CC4)CC3)ccc2c1` (stereo not drawn) (as salt: oxalate) [Example 69, 5-Fluoro-3-{4-[4-(6-Methoxy-naphthalen-2-yl)-piperazin-1-yl]-cyclohexyl}-1H-indole], the melting point lay within 200 to 203 °C.

Molecule `Cn1cc([C@H]2CC[C@@H](N3CCN(c4cc(C=O)cc5cccnc45)CC3)CC2)c2cc(C#N)ccc21` (as salt: oxalate) [Example 71, 8-[4-[(cis)-4-(5-Cyano-1-methyl-1H-indole-3-yl)-cyclohexyl]-piperazin-1-yl]-6-quinolinecarbaldehyde] showed a melting point of 172 to 174 °C.

In turn, `Cn1cc([C@H]2CC[C@@H](N3CCN(c4cc(C(=O)O)cc5cccnc45)CC3)CC2)c2cc(C#N)ccc21` (as salt: oxalate) [Example 73, 8-[4-[(cis)-4-(5-Cyano-1-methyl-1H-indole-3-yl)cyclohexyl]-1-piperazinyl]-6-quinolinecarboxylic Acid] gave a melting point of 230 °C.

The molecule `COC(=O)c1cc(N2CCN([C@H]3CC[C@@H](c4cn(C)c5ccc(C#N)cc54)CC3)CC2)c2ncccc2c1` (as salt: oxalate) [Example 75, Methyl 8-[4-[(cis)-4-(5-cyano-1-methyl-1H-indol-3-yl)cyclohexyl]-1-piperazinyl]-6-quinolinecarboxylate] gave a melting point of 153 to 155 °C.

As to `CN(C)C(=O)c1cc(N2CCN([C@H]3CC[C@@H](c4cn(C)c5ccc(C#N)cc54)CC3)CC2)c2ncccc2c1` (as salt: oxalate) [Example 77a, 8-[4-[(cis)-4-(5-Cyano-1-methyl-1H-indol-3-yl)cyclohexyl]-1-piperazinyl]-N,N-dimethyl-6-quinolincarboxamide], the melting point was 163 to 165 °C.

Molecule `COc1cc(N2CCN([C@H]3CC[C@@H](c4c[nH]c5ncccc54)CC3)CC2)c2ncccc2c1` (as salt: oxalate) [Example 78, 6-Methoxy-8-{cis-4-[4-(1H-pyrrolo[2,3-b]pyridin-3-yl)cyclohexyl]-1-piperazinyl}quinoline] showed a melting point of 216 to 220 °C.

In turn, `COc1cc2cccnc2c(N2CCN([C@H]3CC[C@@H](c4cn(C)c5ccc(C#N)cc54)CC3)CC2)n1` (as salt: salt) [Example 66a, (cis)-3-{4-[4-(6-Methoxy[1,7]naphthyridin-8-yl)piperazin-1-yl]cyclohexyl}-1-methyl-1H-indole-5-carbonitrile] came in with a melting point of 235 to 238 °C.

As for `COc1cc2cccnc2c(N2CCN([C@H]3CC[C@@H](c4cn(C)c5ccc(C#N)cc54)CC3)CC2)n1` (as salt: salt) [Example 66b, (cis)-3-{4-[4-(6-Methoxy[1,7]naphthyridin-8-yl)piperazin-1-yl]cyclohexyl}-1-methyl-1H-indole-5-carbonitrile], the melting point lay in the range of 230 to 233 °C.

The molecule `COc1cc(N2CCN([C@H]3CC[C@@H](c4cn(C)c5ccc(C#N)cc54)CC3)CC2)c2nc(C)ccc2c1` [Example 51a, (cis)-3-{4-[4-(6-Methoxy-2-methylquinolin-8-yl)piperazin-1-yl]cyclohexyl}-1-methyl-1H-indole-5-carbonitrile] came in with a melting point of 201 to 203 °C.
